The test system of test [1] is P. falciparum NF54 hsp86-PpyRE13 asexual stages. The test is described as follows: P. falciparum asexual stage assay (pLDH). Format: cell-based, Plasmodium falciparum. The note with it: Plasmodium falciparum, NF54, read-out: NF54 Hsp86 PpYRE13 (IC50 nM). As for the experimental part:
(§1) With the selected 84 compounds, the subsequent step aimed at determining the gametocyte inhibition potency and the parasite stage selectivity between the gametocytes and the asexual stages in the NF54 hsp86-PpyRE13. […] Similar data were obtained considering the gametocyte IC50 values measured in the NF54 pfs16-GFP-PyLUC strain (see Supplementary Data 2).
Parasite proliferation assays were performed in 384-well plates (Thermo, 4332, USA) with a starting parasitemia of 0.25% at a haematocrit of 2% by quantification of parasite lactate dehydrogenase (pLDH). Compounds or DMSO as control were pre dispensed on plates, from 10 mM DMSO stock solutions, via an acoustic droplet ejection device (ATS-100, EDC Biosystems) to achieve de final desired concentration. Assay plates were incubated for 72 h at 37 °C in 4% CO2, 3% O2, and 93% N2 modified atmosphere. After the incubation period, plates are frozen at −80 °C for two h and then thawed at room temperature for 2 h. Then, 50 µL of the developer solution (70 mM Tris-HCl pH 8.0, 0.5% Tween-20, 100 mM Lithium L-Lactate, 125 µM nitro blue tetrazolium, 2 U/ml diaphorase and 100 µM 3-Acetylpyridine Adenine Dinucleotide) are added to each well and let to react for 10 min. Absorbance was then read at 650 nm by a suitable spectrophotometer.

The test system of test [2] is HeLa cells. The test is described as follows: HeLa cell proliferation assay (CellTiter Glo). Format: cell-based, human. The note with it: Homo sapiens. As for the experimental part:
In addition, we tested the 84 compounds in a dose-response fashion on HeLa cells to quantitatively monitor their cytotoxicity potential.
HeLa cells (CCL-2, ATCC, USA) were cultured in DMEM without phenol red (Thermo, 11880, USA) + 10% FBS + 1X PenStrep + 1X Gln. They were plated in a 384-well plate (Thermo, 4334-11, USA) to a density of 2000 cells per well and let recover for 4 h at 37 °C, 5% CO2 in a humidified atmosphere. After the recovery, compounds were transferred to assay plates as per compound preparation method. Assay plates were then incubated at 37 °C, 5% CO2 in a humidified atmosphere for 72 h. Cell viability was measured by the CellTiTer Glo (Promega, G8080, USA) as per manufacturer instruction.
On the technique in general: In ATP-based viability assays light output follows the ATP content of the culture.

Test [3] relates to P. falciparum NF54 pfs16-GFP-PyLUC gametocytes. Put plainly: P. falciparum gametocyte luminescence assay (PfLuc), line NF54 pfs16-GFP-PyLUC. It counts as cell-based, Plasmodium falciparum. The note with it: Plasmodium falciparum, NF54, read-out: Pf Gametocytes NF54 pfs16 (IC50 nM). On the procedure:
(§2) To exclude false positive compounds that may interfere with the click beetle CBG99 luciferase signal and to confirm the activity on gametocytes produced by other P. falciparum lines, we tested the above 638 compounds at a single concentration of 10 µM on gametocytes from two NF54 strain derived lines: pfs16-GFP-PyLUC (Photinus pyralis luciferase under the same pfs16 promoter)[14],[16],[27] and hsp86-PpyRE13 that was generated for this work to express the mutated Photinus pyralis PpyRE13 luciferase in gametocytes under the promoter of the pfhsp86 gene.
as §1
(§3) Parasite gametocyte luminescence assays were performed in 384-well plates (Thermo, 4332, USA) by infected red blood cells seeded at 40 µL/well at a haematocrit of 0.625% for the strain 3D7elo1-pfs16-CBG99, 1.875% for both strains NF54 hsp86-PpyRE13 and NF54 pfs16-GFP-PyLUC. Assay were performed in the medium: 10.44 g/L RPMI 1640 Medium (Gibco, 51800043), 5.95 g/L HEPES (Sigma, H4034), 50 mg/L Hypoxantine (Sigma, 56700), 10% heat inactivated human serum, 10 ml of Neomycin solution (Sigma, N1142) and 2.1 g/L NaHCO3 (Sigma, 144-55-8). Compounds or DMSO as control were pre dispensed on plates, from 10 mM DMSO stock solutions, via an acoustic droplet ejection device (ATS-100, EDC Biosystems) to achieve the final desired concentration. Assay plates were incubated for 48 h at 37 °C in 4% CO2, 3% O2, and 93% N2 modified atmosphere. After incubation, 20 µL/well of a solution of luciferin (Regis, 1-360242-200) potassium/sodium salt (300 µg/ml) are added to the assay plates and read at suitable luminescence detection after 1 min incubation at room temperature. The whole HTS was performed in 7 rounds of 30–80 plates each in two months’ time.

For test [4], the system named is P. falciparum NF54 male gametocytes (stage V). Put plainly: Male gamete exflagellation assay. It counts as cell-based, Plasmodium falciparum. The following applies: for Inhibition of male exflagellation at 1 µM: 48 h; for activity at 1 µM: Plasmodium falciparum. As for the experimental part:
The above selected 30 compounds were subjected to a phenotypic male gamete exflagellation assay. This assay measures the viability of male gametocytes by quantitating the final step of maturation into motile microgametes in vitro[24]. This process naturally occurs in the mosquito gut within minutes from the blood meal. The acquisition of time lapse videos of gamete motility in bright field microscopy and the subsequent analysis to count exflagellation centres were performed in an automated HTS format in 384-well plates. The compounds were tested in two independent biological replicates at the concentration of 1 µM. […] The results of this study led to the identification of 16 compounds with anti-exflagellation activity (Fig. 4). […] The standard membrane feeding assay (SMFA) is used to measure the parasite transmission through mosquito. In this assay, mature stage V gametocytes of the P. falciparum strain NF54-hsp70-luc were treated with 1 and 10 µM of the nine selected compounds for 24 h, added with human red blood cells and serum to achieve a haematocrit of 50% and then fed to mosquitoes. Luminescence was analyzed in […] 8 days post-feeding.
Asexual parasites of the NF54 line, kindly obtained from Elena Levashina’s laboratory (Max Plank Institute for Infection Biology, Berlin, Germany), were seeded at 1% total parasitemia and grown for 16 days changing medium every day until development of stage V gametocytes (about 1–2% of stage V gametocytemia). 100 µl of gametocyte culture was seeded in each well of a 96 well-plate and 100 µl of 2× concentration of compounds or DMSO as control were added to each well to achieve the desired final concentration. Assay plates were incubated for 48 h at 37 °C in 4% CO2, 3% O2, and 93% N2 modified atmosphere. After the incubation period, 100 µl of medium were removed from each well and the other 100 µl were transferred to a black imaging 96 well plate (ibidi) containing 100 µl of complete medium supplemented with 40 µM of xanthurenic acid. After 15 min, exflagellation events were captured by three ten-second videos each well with an Olympus IX83 inverted microscope with a UPLSAPO 10× N.A. 0.75 objective (Olympus, Japan), equipped with a Hamamatsu ORCA-Flash 4.0 V3 camera. Each video was analyzed using the Icy bio-image analysis software (http://icy.bioimageanalysis.org/) to count the number of exflagellation events.

In test [5] the test system is P. falciparum NF54 hsp86-PpyRE13 gametocytes. Put plainly: P. falciparum gametocyte luminescence assay (PfLuc), line NF54 hsp86-PpyRE13. It counts as cell-based, Plasmodium falciparum. The following applies: for IC50: Plasmodium falciparum, NF54, read-out: Pf Gametocytes NF54 HSP86 (IC50 nM); for gametocyte specificity / selectivity (gametocytes vs asexual stages): NF54 hsp86-PpyRE13, ratio of asexual stage (pLDH) to gametocyte (PfLuc) IC50. On the procedure:
as §2, §1, §3

Where [6] appears, read: NF54, read-out: Exflagellation @ 1 uM (% of DMSO) 1.
The mark [7] stands for this setting: NF54, read-out: Exflagellation @ 1 uM (% of DMSO) 2.

SMILES strings stand for the structures. Read-outs that look alike come from different tables or passages of the source.

With `COc1cc(CNCC2CCNCC2)ccc1OCc1cccc(Cl)c1` [Compound 53], the IC50 – broadly, the concentration at which inhibition is half-maximal – in test [1] came out at 2360 nM; in test [2] it was 5340 nM; in test [3], 876 nM; in test [5] it was 1820 nM. Besides, in test [4] (1 µM), the “male gamete exflagellation reduced to” value was 20–30%. Besides, the “Inhibition of male exflagellation at 1 µM” value (from here on “Inhibition”) was determined as 19.2 in test [4] (1 µM, Replicate 1) and 35.9 in test [4] (1 µM, Replicate 2). Further, the figures for the activity at 1 µM in test [4] (setting [6]) and in test [4] (setting [7]) were 19.2% and 35.9%, respectively.
As for `COc1ccccc1Cn1cc2c(-c3ccc(F)cc3)nnc-2c2cc(OC)c(OC)cc21` [Compound 31], the concentration for half-maximal inhibition (IC50) in test [1] was found to be 967 nM; in test [2], 5000 nM; in test [3] it was 277 nM; in test [5] it was 496 nM. Further, the “Inhibition” value in test [4] (1 µM, Replicate 1) amounted to 80.597; in test [4] (1 µM, Replicate 2) it was 111.628. In addition, the results for the activity at 1 µM in test [4] (setting [6]) and in test [4] (setting [7]) were 80.6% and 112%, respectively.
Consider `O=C(c1ccc([N+](=O)[O-])o1)N1CCC(Cn2cnc3ccccc32)CC1` [Compound 69], for which the IC50 in test [1] was determined as 6150 nM; in test [2], 11300 nM; in test [3], 555 nM; in test [5], 1500 nM. Also, the activity at 1 µM was 17.3% in test [4] (setting [6]) and 57.7% in test [4] (setting [7]). In addition, in test [5], the “gametocyte specificity / selectivity (gametocytes vs asexual stages)” value was “around six”.
Regarding `OC(c1ccc(Cl)cc1)C1CCN(CCCN2CCC(C(O)c3ccc(Cl)cc3)CC2)CC1` (stereo not shown) [Compound 13], the IC50 in test [1] is 1740 nM; in test [2], 4510 nM; in test [3], 582 nM; in test [5] it was 1600 nM. Moreover, the “Inhibition” value is 15.4 in test [4] (1 µM, Replicate 1) and 64.1 in test [4] (1 µM, Replicate 2). The activity at 1 µM in test [4] (setting [6]) came to 15.4%; in test [4] (setting [7]), 64.1%.
For the compound `COc1ccc(NC(=O)Nc2ccc(Nc3nc(C)cc(Nc4ccc(C)cc4)n3)cc2)cc1` [Compound 65], the half-maximal inhibitory concentration (IC50) in test [1] came to 904 nM; in test [2], 4500 nM; in test [3], 480 nM; in test [5], 431 nM. Besides, the “Inhibition” value turned out to be 5.085 in test [4] (1 µM, Replicate 1) and 52.8 in test [4] (1 µM, Replicate 2). Also, the activity at 1 µM in test [4] (setting [6]) was found to be 5.08%; in test [4] (setting [7]) it was 52.8%.
For `Cc1ccc(Nc2cc(C)nc(Nc3ccc(NC(=O)c4cc5ccccc5oc4=O)cc3)n2)cc1` [Compound 63], the 50% inhibitory concentration (IC50) worked out at 1730 nM in test [1], 8690 nM in test [2], 225 nM in test [3] and 1870 nM in test [5]. The “Inhibition” value was determined as 62.7119 in test [4] (1 µM, Replicate 1) and 21.3333 in test [4] (1 µM, Replicate 2). Moreover, the activity at 1 µM in test [4] (setting [6]) was 62.7%; in test [4] (setting [7]), 21.3%.
Turning to `COc1ccc(Nc2cc(C)nc(Nc3ccc(NC(=O)c4cc(C)cc(C)c4)cc3)n2)cc1` [Compound 64], the IC50 turned out to be 437 nM in test [1], 8100 nM in test [2], 264 nM in test [3] and 215 nM in test [5]. Moreover, the “Inhibition” value is listed as 108.475 in test [4] (1 µM, Replicate 1) and 123.2 in test [4] (1 µM, Replicate 2). The values for the activity at 1 µM in test [4] (setting [6]) and in test [4] (setting [7]) were 108% and 123%, respectively.
Regarding `Clc1ccc(Nc2nc(-c3ccccn3)cs2)nc1` [Compound 39], the IC50 in test [1] is 540 nM; in test [2] it was 2950 nM; in test [3], 308 nM; in test [5], 382 nM. For the same compound, the “Inhibition” value in test [4] (1 µM, Replicate 1) turned out to be 30.5085; in test [4] (1 µM, Replicate 2) it was 73.2558. Further, the activity at 1 µM in test [4] (setting [6]) stood at 30.5%; in test [4] (setting [7]) it was 73.3%.
On to `Cc1ccc2nc(-c3ccccc3)c(CSc3cccc[n+]3[O-])n2c1` [Compound 16], for which the IC50 in test [1] worked out at 1270 nM; in test [2] it was 9510 nM; in test [3], 167 nM; in test [5] it was 219 nM. In addition, the “Inhibition” value is 23.1 in test [4] (1 µM, Replicate 1) and 19.2 in test [4] (1 µM, Replicate 2). Besides, the activity at 1 µM in test [4] (setting [6]) was found to be 23.1%; in test [4] (setting [7]) it was 19.2%. Besides, the “gametocyte specificity / selectivity (gametocytes vs asexual stages)” value in test [5] is reported as “around 6 fold”.

Source of the values: paper PMC9170688, “Gametocyte-specific and all-blood-stage transmission-blocking chemotypes discovered from high throughput screening on Plasmodium falciparum gametocytes” (Communications Biology, 2022).
